Assay results: patent US20100206318A1, “FILTER FOR A TOBACCO PRODUCT” (BIOHIT OYJ, priority 2007, published 2010)

Test: acetaldehyde in saliva of testees during smoking through cigarette holder with filter (headspace gas chromatography)
Type: in vivo, human
Settings: FIG. 1
Text: The entire filter of Marlboro Red was removed or, in some tests, 2-3 mm of the original filter was left in the cigarette.
In the tests, ready commercial cigarette holders/mouthpieces of Denicotea, www.denicotea.de were used. In the cigarette holders/mouthpieces, plastic cylinder-shaped “containers” were used, the filtering material being packed in the containers. The original content (intended for the removal of nicotine) of the containers was removed and replaced with the material that was used in the study. The outer dimensions of the container were: diameter 8 mm and length 35 mm.
Cellulose wadding (c. 100 mg), filter paper (Whattman), Commercial filters: Smart (the importer: Altadia Finland Oy) and Ventti (Philip Morris Finland Oy),
Cysteine was dissolved in distilled water, 30-180 mg of L-Cysteine/1 ml. The manufacturer: Fluka, 30089.
The filter material that had been packed in plastic cylinders was moistened with a water-cysteine solution (50-250 μl), and the filter container thus made was placed in the Denicotea cigarette holder. After this, the testees smoked the cigarettes that had been placed in the mouthpieces. During smoking, saliva samples were collected from those participating in the tests and the acetaldehyde in the saliva was analyzed by gas chromatography, Perkin-Elmer, HS40, headspace Gas Chromatograph.

N[C@@H](CS)C(=O)O [cysteine, L-Cysteine]
filterability, dependence on amount: dependent on the amount of cysteine
